Measurements taken from US20070225363A1, “Methods and Agents for Inhibiting Dynamin-Dependent Endocytosis” (the University of Newcastle Research Associates Ltd., priority 2003, published 2007).
“Also recorded” adds a separate entry of the source.

Columns and labels:
[1] = system: dynamin II; assay: [α-32P]-GTP binding assay, dynamin II
Method: (§1) The [α-^32P]-GTP-binding assay was performed in the wells of a 96-well microtitre plate. Dynamin (0.2 μg/well) was added to GTPase buffer and incubated for 10 min at 4 C in the dark. [α-^32P]-GTP (2 μCi/tube) was then added to the reaction and incubated for a further 10 min at 4 C. in the dark. The microtitre plate was then irradiated with a short wavelength ultraviolet lamp at […] for 30 min at a distance of 8 cm. The specificity of photolabelling was determined by comparing the labelling in the presence and absence of 1 mM cold GTP. Samples were then applied to nitrocellulose membranes by aspiration through the wells of a 24 well slot blotter. The nitrocellulose was washed 3 times with PBS and dried. Bound nucleotide was detected by a phosphorimager (Molecular Dynamics).

[2] = target: T1, dynamin I (Ovis aries, UniProt A0ACI6NZN1); assay: [α-32P]-GTP binding assay, dynamin I; set-up: species or system sheep
T1 sequence (A0ACI6NZN1 entry or part of it): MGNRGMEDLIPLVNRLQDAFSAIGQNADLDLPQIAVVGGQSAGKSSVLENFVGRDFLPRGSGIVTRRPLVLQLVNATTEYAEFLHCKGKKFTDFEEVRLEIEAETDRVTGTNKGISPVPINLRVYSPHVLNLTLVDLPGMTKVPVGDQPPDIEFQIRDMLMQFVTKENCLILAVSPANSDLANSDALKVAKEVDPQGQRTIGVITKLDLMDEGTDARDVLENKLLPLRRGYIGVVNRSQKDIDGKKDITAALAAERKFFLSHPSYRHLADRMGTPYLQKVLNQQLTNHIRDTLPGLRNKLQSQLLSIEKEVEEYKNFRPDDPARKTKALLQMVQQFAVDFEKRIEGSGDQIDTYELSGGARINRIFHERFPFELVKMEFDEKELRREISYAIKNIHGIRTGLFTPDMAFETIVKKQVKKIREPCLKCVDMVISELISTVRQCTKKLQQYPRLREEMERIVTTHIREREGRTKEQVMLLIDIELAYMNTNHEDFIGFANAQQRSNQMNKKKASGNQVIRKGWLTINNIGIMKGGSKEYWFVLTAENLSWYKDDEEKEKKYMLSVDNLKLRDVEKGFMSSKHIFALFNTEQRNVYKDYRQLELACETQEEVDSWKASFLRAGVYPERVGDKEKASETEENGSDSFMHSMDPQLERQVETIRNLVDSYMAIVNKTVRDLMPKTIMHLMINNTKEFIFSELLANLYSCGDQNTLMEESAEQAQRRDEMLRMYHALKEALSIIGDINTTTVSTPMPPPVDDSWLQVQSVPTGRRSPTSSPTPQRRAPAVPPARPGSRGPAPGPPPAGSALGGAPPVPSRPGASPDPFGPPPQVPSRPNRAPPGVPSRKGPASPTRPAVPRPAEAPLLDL
Method: as §1

[3] = system: ΔPH domain dynamin I; assay: GTPase assay with recombinant dynamin I lacking the PH domain; type: biochemical
Method: (§2) The plasmid for GST-Amph2-SH3 (muscle Amph2) (Butler et al., 1997) was provided by Pieto DeCamilli, Yale, Connecticut, USA, in pGEX2T vectors. The plasmid was grown in E. coli and the GST-Amph2-SH3 fusion protein was purified on glutathione (GSH)-Sepharose by elution with 10 mM reduced GSH in 20 mM Tris-HCl, pH 7.5, dialysed against the same buffer without GSH and stored at 4° C. Dynamin was purified from sheep brain by extraction from the peripheral membrane fraction of whole brain (Robinson et al., 1993) and affinity purification on GST-Amph2-SH3-sepharose as previously described (Marks and McMahon., 1998), yielding 8 mg protein from 250 g sheep brain. Recombinant dynamin II was expressed in insect cells and was a gift from Dr Sandra Schmid (Scripps, San Diego, Calif.). Recombinant dynamin I lacking the PH domain (dynamin PH, provided by Robin Scaife) was expressed in insect cells using baculoviral infection (Salim et al., 1996).
Dynamin GTPase activity was determined by hydrolysis of [ ? -^32P]GTP by a method modified from that described previously (Robinson et al., 1993). Briefly, purified dynamin I or dynamin II (0.2 μg/tube) was incubated in GTPase buffer (10 mM Tris, 10 mM NaCl, 2 mM Mg^2+, 0.05% Tween 80, pH 7.4, 1 μg/ml leupeptin and 0.1 mM PMSF) and a GTP cocktail containing 0.3 mM GTP and 1.3 μCi [ ? -^32P]-GTP in the presence or absence of varying concentrations of inhibitors or DMSO vehicle for 10 min at 30 C. The final assay volume was 40 μl. Dynamin activity was measured as either basal or phospholipid-stimulated with the addition of 5 μg/ml L-phosphatidylserine. The reaction was terminated with 100 μl of GTPase stop buffer (2% formic add, 8% acetic acid, pH 1.9), followed by 600 μl of acid-washed charcoal solution (7% charcoal in acidic solution (w/v)) and 100 μl BSA (5 mg/ml). After centrifuging for 5 min (13,000 rpm at room temperature), 200 μl of each supernatant was counted in a -counter for the release of ^32Pi from [ ? -^32P]-GTP. […]

[4] = target: T1, dynamin I; assay: Dynamin I GTPase assay ([γ-32P]GTP hydrolysis); type: biochemical, sheep
Method: as §2
Dynamin GTPase activity was determined by hydrolysis of [ ? -^32P]GTP by a method modified from that described previously (Robinson et al., 1993). Briefly, purified dynamin I or dynamin II (0.2 μg/tube) was incubated in GTPase buffer (10 mM Tris, 10 mM NaCl, 2 mM Mg^2+, 0.05% Tween 80, pH 7.4, 1 μg/ml leupeptin and 0.1 mM PMSF) and a GTP cocktail containing 0.3 mM GTP and 1.3 μCi [ ? -^32P]-GTP in the presence or absence of varying concentrations of inhibitors or DMSO vehicle for 10 min at 30 C. The final assay volume was 40 μl. Dynamin activity was measured as either basal or phospholipid-stimulated with the addition of 5 μg/ml L-phosphatidylserine. The reaction was terminated with 100 μl of GTPase stop buffer (2% formic add, 8% acetic acid, pH 1.9), followed by 600 μl of acid-washed charcoal solution (7% charcoal in acidic solution (w/v)) and 100 μl BSA (5 mg/ml). After centrifuging for 5 min (13,000 rpm at room temperature), 200 μl of each supernatant was counted in a -counter for the release of ^32Pi from [ ? -^32P]-GTP.

[5] = system: isolated nerve terminals (synaptosomes); assay: Glutamate release assay (exocytosis) in synaptosomes; type: cell-based, rat; details: 30 mM KCl
Method: The glutamate release assay was performed using enzyme-linked fluorescent detection of released glutamate (Cousin and Robinson., 2000a, b). Briefly, synaptosomes (0.6 mg in 2 ml) were resuspended in either plus (1.2 mM CaCl2) or minus (1 mM EGTA) Ca^2+ Krebs-like solution (118.5 mM NaCl, 4.7 mM KCl, 1.18 mM MgCl2, 0.1 mM Na2HPO4, 20 mM Hepes, 10 mM glucose, pH 7.4) at 37° C. Experiments were started after addition of 1 mM NADP^+. After 1 minute 50 U of glutamate dehydrogenase was added and the synaptosome suspension was stimulated after 4 minutes with 30 mM KCl. Increases in fluorescence due to production of NADPH were monitored in a Perkin-Elmer LS-50B spectrofluorimeter at 340 nm excitation and 460 nm emission. Experiments were standardised by the addition of 4 nmol of glutamate. Data is presented as Ca^2+-dependent glutamate release, calculated as the difference between release in plus and minus Ca^2+ solution for identical stimulation conditions.

[6] = system: isolated nerve terminals (synaptosomes); assay: Synaptic vesicle endocytosis, FM2-10 uptake in synaptosomes; type: cell-based, rat; details: 100 μM
Method: Isolated nerve terminals (synaptosomes) were prepared from rat cerebral cortex by centrifugation on discontinuous percoll gradients (Dunkley et al., 1986). Fractions 3 and 4 were pooled and used in all experiments. Endocytosis was measured using uptake of the fluorescent dye FM2-10 as previously described (Cousin and Robinson 2000a). Synaptosomes (0.6 mg in 2 ml) were incubated for 5 min at 37° C. in plus or minus Ca^2+ Krebs-like solution. FM2-10 ([…]) was added 1 min before stimulation with 30 mM KCl (S1). As FM2-10 is taken up by vesicles via endocytosis at the S1 phase of stimulation, synaptosomes were incubated with antagonists during this phase. […] After 2 min of stimulation synaptosomes were washed twice in plus Ca^2+ solution containing 1 mg/ml bovine serum albumin. The washing steps remove non-internalised FM2-10 and the tyrphostins. Washed synaptosomes were resuspended in plus Ca^2+ solution at 37° C., transferred to a fluorimeter cuvette and stimulated with a standard addition of 30 mM KCl (S2). The standard S2 stimulation releases all accumulated FM2-10 and allows endocytosis to be measured as the decrease in FM2-10 fluorescence due to dye release into solution (excitation 488 nm, emission 540 nm).
Endocytosis was calculated as the decrease in absolute fluorescence stimulated by 30 mM KCl at S2. […] Retrieval efficiency is a more accurate measure of endocytosis since it takes into account the amount of prior exocytosis. Retrieval efficiency was calculated as endocytosis/exocytosis, where endocytosis is defined as above and exocytosis as Ca^2+-dependent glutamate release after 2 min of stimulation. The retrieval efficiency value was normalised to a ratio of 1.0 for 30 mM KCl.

[7] = system: Arf2; assay: [α-32P]-GTP binding to small G protein Arf2; details: data not shown
Method: (§3) Competition of these drugs with GTP for the active site of 4 small G proteins (Rab3A, Ras, Arf2, RalA) was also tested.

[8] = system: HER14 cells; assay: Texas Red-transferrin uptake in HER14 cells; type: cell-based; details: drug added 15 or 60 minutes before Tf-TxR
Method: (§4) Transferrin (Tf) uptake was analysed in Swiss 3T3 and HER14 cells based on methods previously described (van der Bliek et al., 1993). Briefly, cells were plated to 60% confluency in DMEM medium plus 10% foetal calf serum after which the cells were incubated overnight (8-10 hours) in DMEM minus foetal calf serum. Texas red-transferrin (Tf-TxR, Molecular Probes, Oregon) was added to a final concentration of 5 μg/ml and the cells incubated at 37° C. for 10 minutes. Cell surface staining was removed by incubating the cells in an ice cold acid wash solution (0.2 M acetic acid +0.5 M NaCl, pH 2.8) for 15 minutes. Cells were immediately fixed with 4% paraformaldehyde for 10 minutes then washed 3 times with PBS. Nuclei were stained using DAPI (Molecular Probes, Oregon). Slides were mounted using DABCO and the fluorescence was monitored using a Leica DMLB bright field microscope and SPOT digital camera.

[9] = system: Swiss 3T3 cells; assay: Texas Red-transferrin uptake in Swiss 3T3 cells; type: cell-based; details: drug added 15 or 60 minutes before Tf-TxR
Method: as §4

[10] = target: T2, Rab3A (Homo sapiens, UniProt P20336); assay: [α-32P]-GTP binding to small G protein Rab3A; details: data not shown
T2 sequence (P20336 1-220): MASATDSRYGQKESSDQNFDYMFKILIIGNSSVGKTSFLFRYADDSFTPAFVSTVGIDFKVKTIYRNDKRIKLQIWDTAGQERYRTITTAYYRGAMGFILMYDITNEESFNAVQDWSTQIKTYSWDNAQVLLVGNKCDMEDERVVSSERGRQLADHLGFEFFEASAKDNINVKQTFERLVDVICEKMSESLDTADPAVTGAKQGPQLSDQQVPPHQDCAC
Method: as §3

[11] = system: Ras; assay: [α-32P]-GTP binding to small G protein Ras; details: data not shown
Method: as §3

[12] = target: T3, RalA (Homo sapiens, UniProt P11233); assay: [α-32P]-GTP binding to small G protein RalA; details: data not shown
T3 sequence (P11233 1-206): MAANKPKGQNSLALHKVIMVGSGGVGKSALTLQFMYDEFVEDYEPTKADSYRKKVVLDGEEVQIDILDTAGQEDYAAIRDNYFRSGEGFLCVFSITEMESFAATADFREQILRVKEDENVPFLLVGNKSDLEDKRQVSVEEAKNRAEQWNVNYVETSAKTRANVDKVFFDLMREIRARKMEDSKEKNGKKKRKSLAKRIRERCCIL
Method: as §3

CN(C)CCCn1cc(C2=C(c3c[nH]c4ccccc34)C(=O)NC2=O)c2ccccc21 [BIM I]
[α-32P]-GTP binding to dynamin II in the presence of drug [1]: compete with GTP
[α-32P]-GTP binding to dynamin I in the presence of drug [2]: compete with GTP
ability to inhibit GTPase activity of dynamin I lacking the PH domain [3]: lost its ability to inhibit

N#C/C(=C\c1ccc(O)c(O)c1)C(=O)N1CCN(C(=O)/C(C#N)=C/c2ccc(O)c(O)c2)CC1 [Compound 71]
dynamin inhibition ([4]; screen at ≦100 μM): no dynamin inhibition

COc1cc(C=C(C#N)C(=O)NCCCNC(=O)C(C#N)=Cc2cc(O)c(O)c(OC)c2)cc(O)c1O [Compound 24, 2-Cyano-N-{3-[2-cyano-3-(3,4-dihydroxy-methoxyphenyl)-acryloylamino]-propyl}-3-(3,4-dihydroxy-5-methoxyphenyl)-acrylamide]
IC50 ([4]; library 1 (dimeric) compounds): 5 ± 1 µM

O[C@H](CS)[C@H](O)CS (racemic) [Dithiothreitol, dithiothreitol]
effect on dynamin GTPase activity ([4]; alone, data not shown): without effect

N#C/C(=C\c1ccc(O)c(O)c1)C(N)=S [tyrphostin A47]
exocytosis (Ca2+-dependent glutamate release) [5]: no effect
inhibition of synaptic vesicle endocytosis (SVE) ([6]; synaptosomes): did not
retrieval efficiency (endocytosis/exocytosis) ([6]; 1 indicates no drug effect): 0.95 (±0.05)
effect on [α-32P]-GTP binding to Arf2 [7]: neither drug affected
internalisation of texas-red labelled transferrin into HER14 cells [8]: not as dramatically as bis-tyrphostin
internalisation of texas-red labelled transferrin into Swiss 3T3 cells [9]: not as dramatically as bis-tyrphostin
effect on [α-32P]-GTP binding to Rab3A [10]: neither drug affected
[α-32P]-GTP binding to dynamin I in the presence of drug [2]: not seen to decrease; also recorded: not affected
effect on [α-32P]-GTP binding to Ras [11]: neither drug affected
effect on [α-32P]-GTP binding to RalA [12]: neither drug affected
inhibitory potency on dynamin ([4]; freshly prepared solutions): no inhibitory potency
inhibitory potency on dynamin ([4]; stocks kept at room temperature for 24 hrs): weak potency
